How the values were obtained:
[1] = target: Activated CDC42 kinase 1 (Homo sapiens) (UniProt Q07912); assay: Inhibition of human ACK1 at 500 nM by HotSpot assay relative to control
[2] = target: Calcium/calmodulin-dependent protein kinase type 1G (Homo sapiens) (UniProt Q96NX5); assay: Inhibition of human CAMK1g at 500 nM by HotSpot assay relative to control
[3] = target: Death-associated protein kinase 2 (Homo sapiens) (UniProt Q9UIK4); assay: Inhibition of human DAPK2 at 500 nM by HotSpot assay relative to control
[4] = target: Myosin light chain kinase 2, skeletal/cardiac muscle (Homo sapiens) (UniProt Q9H1R3); assay: Inhibition of human MYLK2 at 500 nM by HotSpot assay relative to control
[5] = target: T1, Muscle, skeletal receptor tyrosine-protein kinase (Homo sapiens) (UniProt O15146); assay: Inhibition of human MUSK at 500 nM by HotSpot assay relative to control
T1 sequence (whole entry): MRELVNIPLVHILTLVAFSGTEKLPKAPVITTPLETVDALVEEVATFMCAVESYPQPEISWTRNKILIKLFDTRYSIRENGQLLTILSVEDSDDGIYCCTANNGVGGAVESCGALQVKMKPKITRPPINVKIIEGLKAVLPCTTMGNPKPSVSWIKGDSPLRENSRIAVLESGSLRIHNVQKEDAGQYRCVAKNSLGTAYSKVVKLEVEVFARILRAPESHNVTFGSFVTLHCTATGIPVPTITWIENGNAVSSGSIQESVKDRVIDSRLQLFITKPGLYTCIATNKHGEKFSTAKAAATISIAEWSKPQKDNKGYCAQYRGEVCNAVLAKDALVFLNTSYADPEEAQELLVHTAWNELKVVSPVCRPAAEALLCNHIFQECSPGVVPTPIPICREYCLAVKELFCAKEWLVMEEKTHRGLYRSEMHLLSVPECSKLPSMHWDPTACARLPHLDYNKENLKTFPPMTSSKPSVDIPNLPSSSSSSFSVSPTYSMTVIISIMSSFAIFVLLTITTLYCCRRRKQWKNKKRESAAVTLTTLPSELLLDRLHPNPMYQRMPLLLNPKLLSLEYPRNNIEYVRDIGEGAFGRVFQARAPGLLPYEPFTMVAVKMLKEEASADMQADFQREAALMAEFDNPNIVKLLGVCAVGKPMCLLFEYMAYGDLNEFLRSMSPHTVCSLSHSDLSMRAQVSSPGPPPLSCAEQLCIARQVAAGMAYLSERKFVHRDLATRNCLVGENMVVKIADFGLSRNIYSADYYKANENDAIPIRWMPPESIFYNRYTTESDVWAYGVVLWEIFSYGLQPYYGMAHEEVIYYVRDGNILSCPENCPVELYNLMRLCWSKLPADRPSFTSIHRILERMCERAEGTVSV

[6] = target: Serine/threonine-protein kinase Nek6 (Homo sapiens) (UniProt Q9HC98); assay: Inhibition of human NEK6 at 500 nM by HotSpot assay relative to control
[7] = target: Serine/threonine-protein kinase 16 (Homo sapiens) (UniProt O75716); assay: Inhibition of human STK16 at 500 nM by HotSpot assay relative to control
[8] = target: T2, Serine/threonine-protein kinase TBK1 (Homo sapiens) (UniProt Q9UHD2); assay: Inhibition of human TBK1 at 500 nM by HotSpot assay relative to control
T2 sequence (whole entry): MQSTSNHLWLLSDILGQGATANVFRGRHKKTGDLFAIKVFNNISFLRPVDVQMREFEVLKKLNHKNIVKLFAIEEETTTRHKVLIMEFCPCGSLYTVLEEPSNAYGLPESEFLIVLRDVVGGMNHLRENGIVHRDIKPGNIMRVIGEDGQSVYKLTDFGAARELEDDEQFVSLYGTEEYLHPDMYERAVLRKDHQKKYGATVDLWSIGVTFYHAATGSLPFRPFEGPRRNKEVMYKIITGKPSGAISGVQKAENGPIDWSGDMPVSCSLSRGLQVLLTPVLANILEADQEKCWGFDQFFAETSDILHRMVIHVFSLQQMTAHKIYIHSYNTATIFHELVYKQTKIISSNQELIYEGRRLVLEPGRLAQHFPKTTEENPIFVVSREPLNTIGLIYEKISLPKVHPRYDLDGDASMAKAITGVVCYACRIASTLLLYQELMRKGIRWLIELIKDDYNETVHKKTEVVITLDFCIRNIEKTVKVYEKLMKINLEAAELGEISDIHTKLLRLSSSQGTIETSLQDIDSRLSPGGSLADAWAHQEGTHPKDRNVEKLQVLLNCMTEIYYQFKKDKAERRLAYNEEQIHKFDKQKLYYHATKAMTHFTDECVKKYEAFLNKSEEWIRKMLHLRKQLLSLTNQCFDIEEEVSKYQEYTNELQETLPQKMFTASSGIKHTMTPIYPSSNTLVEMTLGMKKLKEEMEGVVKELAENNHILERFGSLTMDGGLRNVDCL

[9] = target: Death-associated protein kinase 3 (Homo sapiens) (UniProt O43293); assay: Inhibition of human DAPK3 at 500 nM by HotSpot assay relative to control
Sequence of Death-associated protein kinase 3 (Homo sapiens) (O43293 whole entry, looked up): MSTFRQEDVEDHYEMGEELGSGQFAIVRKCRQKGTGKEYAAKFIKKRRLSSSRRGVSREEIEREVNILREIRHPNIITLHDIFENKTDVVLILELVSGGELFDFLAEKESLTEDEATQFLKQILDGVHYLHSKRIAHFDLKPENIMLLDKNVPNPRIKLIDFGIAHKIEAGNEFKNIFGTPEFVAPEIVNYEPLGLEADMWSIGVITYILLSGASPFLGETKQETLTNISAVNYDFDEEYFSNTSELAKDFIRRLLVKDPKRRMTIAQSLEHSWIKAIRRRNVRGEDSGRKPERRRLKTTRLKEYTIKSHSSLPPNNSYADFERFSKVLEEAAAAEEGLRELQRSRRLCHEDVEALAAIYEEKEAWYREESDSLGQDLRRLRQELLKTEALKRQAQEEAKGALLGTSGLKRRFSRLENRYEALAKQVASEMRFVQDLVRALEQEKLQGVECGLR

Sequence of Death-associated protein kinase 2 (Homo sapiens) (Q9UIK4 whole entry, looked up): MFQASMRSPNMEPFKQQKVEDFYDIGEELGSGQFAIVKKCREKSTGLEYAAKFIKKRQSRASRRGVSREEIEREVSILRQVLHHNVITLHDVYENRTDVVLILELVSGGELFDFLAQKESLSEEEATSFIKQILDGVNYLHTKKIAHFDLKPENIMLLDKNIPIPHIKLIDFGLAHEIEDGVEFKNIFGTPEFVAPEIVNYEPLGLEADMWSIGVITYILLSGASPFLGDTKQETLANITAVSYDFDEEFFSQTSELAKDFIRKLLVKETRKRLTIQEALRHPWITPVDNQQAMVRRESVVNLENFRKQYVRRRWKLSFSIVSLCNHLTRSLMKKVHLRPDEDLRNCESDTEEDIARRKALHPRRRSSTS
Sequence of Myosin light chain kinase 2, skeletal/cardiac muscle (Homo sapiens) (Q9H1R3 whole entry): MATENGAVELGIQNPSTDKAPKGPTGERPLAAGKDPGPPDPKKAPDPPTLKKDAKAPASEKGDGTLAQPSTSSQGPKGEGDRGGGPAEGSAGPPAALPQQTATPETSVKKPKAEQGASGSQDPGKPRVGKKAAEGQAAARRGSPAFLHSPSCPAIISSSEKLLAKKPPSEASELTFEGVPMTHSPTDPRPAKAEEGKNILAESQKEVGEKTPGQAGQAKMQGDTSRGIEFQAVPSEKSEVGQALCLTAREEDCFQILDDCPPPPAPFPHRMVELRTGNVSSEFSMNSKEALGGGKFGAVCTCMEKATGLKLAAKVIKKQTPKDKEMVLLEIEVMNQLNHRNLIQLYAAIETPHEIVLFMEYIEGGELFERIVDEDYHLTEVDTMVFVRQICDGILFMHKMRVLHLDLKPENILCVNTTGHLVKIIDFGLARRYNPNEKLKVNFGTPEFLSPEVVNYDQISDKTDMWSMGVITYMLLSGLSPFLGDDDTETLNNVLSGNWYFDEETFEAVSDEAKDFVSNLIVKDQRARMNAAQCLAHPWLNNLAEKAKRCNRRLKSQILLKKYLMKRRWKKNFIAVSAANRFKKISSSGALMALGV
Sequence of Activated CDC42 kinase 1 (Homo sapiens) (Q07912 whole entry, looked up): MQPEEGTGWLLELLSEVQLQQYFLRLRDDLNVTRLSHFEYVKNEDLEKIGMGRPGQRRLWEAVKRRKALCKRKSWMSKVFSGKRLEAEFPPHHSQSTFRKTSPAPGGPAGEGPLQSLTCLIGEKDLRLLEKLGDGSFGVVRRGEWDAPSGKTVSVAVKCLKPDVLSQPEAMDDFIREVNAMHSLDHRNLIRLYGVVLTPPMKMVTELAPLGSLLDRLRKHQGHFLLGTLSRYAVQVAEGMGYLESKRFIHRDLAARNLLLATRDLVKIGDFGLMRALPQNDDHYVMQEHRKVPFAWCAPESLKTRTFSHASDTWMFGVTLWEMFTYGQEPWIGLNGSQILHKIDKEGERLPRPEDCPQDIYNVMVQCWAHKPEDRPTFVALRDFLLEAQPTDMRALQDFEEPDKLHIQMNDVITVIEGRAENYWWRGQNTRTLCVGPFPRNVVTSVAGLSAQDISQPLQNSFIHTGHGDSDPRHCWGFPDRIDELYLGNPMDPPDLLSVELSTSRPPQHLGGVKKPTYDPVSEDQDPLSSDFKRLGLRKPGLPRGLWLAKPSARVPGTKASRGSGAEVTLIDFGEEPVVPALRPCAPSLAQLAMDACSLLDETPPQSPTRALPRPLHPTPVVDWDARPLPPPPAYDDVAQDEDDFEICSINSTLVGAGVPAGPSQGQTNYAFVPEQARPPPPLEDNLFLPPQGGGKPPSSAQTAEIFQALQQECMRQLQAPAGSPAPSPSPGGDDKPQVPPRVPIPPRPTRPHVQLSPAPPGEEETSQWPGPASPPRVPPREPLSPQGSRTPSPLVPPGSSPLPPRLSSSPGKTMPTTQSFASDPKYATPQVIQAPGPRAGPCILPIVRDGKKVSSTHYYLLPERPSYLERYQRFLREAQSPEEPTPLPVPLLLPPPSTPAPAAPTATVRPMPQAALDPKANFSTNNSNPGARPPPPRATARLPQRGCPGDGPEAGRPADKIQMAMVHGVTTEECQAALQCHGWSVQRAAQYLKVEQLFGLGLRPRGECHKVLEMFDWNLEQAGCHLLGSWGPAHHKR
Sequence of Calcium/calmodulin-dependent protein kinase type 1G (Homo sapiens) (Q96NX5 whole entry): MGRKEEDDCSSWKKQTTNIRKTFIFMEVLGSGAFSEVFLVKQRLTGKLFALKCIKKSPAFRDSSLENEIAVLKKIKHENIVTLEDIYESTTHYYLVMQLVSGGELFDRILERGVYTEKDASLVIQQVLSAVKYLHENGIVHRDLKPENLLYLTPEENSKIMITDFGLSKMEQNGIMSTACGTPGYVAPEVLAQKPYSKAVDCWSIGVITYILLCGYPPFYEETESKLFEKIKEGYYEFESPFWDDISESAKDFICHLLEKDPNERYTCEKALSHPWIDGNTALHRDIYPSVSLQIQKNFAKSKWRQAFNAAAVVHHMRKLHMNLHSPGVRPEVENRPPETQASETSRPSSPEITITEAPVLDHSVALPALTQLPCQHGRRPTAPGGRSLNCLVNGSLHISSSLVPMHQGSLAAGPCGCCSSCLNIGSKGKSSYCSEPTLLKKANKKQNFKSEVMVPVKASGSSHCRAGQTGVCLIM
Sequence of Serine/threonine-protein kinase Nek6 (Homo sapiens) (Q9HC98 whole entry): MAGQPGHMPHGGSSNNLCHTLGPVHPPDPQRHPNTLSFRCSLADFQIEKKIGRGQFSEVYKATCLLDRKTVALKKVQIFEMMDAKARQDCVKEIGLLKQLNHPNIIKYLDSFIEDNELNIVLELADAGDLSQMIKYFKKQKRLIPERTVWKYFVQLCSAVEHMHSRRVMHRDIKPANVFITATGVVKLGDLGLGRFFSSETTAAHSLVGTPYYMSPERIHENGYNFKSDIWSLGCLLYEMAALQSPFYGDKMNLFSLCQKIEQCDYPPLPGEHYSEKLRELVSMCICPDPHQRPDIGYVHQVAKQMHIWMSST
Sequence of Serine/threonine-protein kinase 16 (Homo sapiens) (O75716 whole entry): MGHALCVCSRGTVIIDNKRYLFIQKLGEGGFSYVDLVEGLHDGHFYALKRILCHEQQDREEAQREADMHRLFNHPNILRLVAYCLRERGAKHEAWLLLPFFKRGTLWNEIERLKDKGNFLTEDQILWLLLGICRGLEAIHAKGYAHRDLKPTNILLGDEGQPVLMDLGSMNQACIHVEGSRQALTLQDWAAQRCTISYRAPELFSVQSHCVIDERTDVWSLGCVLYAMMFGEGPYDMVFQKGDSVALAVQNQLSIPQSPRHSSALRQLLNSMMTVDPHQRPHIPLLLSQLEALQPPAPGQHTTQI

Row | SMILES | inhibition [1] [%] | inhibition [2] [%] | inhibition [3] [%] | inhibition [4] [%] | inhibition [5] [%] | inhibition [6] [%] | inhibition [7] [%] | inhibition [8] [%] | inhibition [9] [%]
1 | Nc1n[nH]c2nnc(-c3c(-c4ccccc4)nn4ccccc34)cc12 | 17.3 | 0.77 | -2.75 | -0.61 | 3.22 | 4.45 | -7.84 | -0.37 | -2.11
2 | Oc1n[nH]c2nnc(-c3c(-c4ccccc4)nn4ccccc34)cc12 | 8.98 | 0.26 | -0.84 | -2.71 | 3.28 | 3.5 | 1.39 | -4.04 | -0.67

From ChEMBL document CHEMBL5653615 (J Biol Chem, 2013)
